These are literature values, as cited in US20190117669A1, “Methods for Treating NSAID-Induced Cardiovascular, Cerebrovascular, or Renovascular Adverse Events” (University of Utah Research Foundation, priority 2016, published 2019).

The conditions of series [1]: dogs, misoprostol 3 mcg/kg every 8 hours for 8 days.
The conditions of series [2]: rats, all misoprostol-treated groups.

`CCCCC(C)(O)C/C=C/[C@H]1[C@H](O)CC(=O)[C@@H]1CCCCCCC(=O)OC` (mixture of isomers) [misoprostol]: the “azotemia, hyperphosphatemia and renal histopathologic changes versus gentamicin alone” value in series [1] is “more severe azotemia, hyperphosphatemia, and renal histopathologic changes”. Further, the blood pressure entry in series [2] was “increased”.
